Laboratory results as given in PMC12123727 (BMC Cancer, 2025).
Read-outs that look alike come from different tables or passages of the source.

Assays:
[1] = Phase 1 plasma pharmacokinetics; assay type: in vivo, human; settings: for increase of exposure (plasma concentration) with dose: dose range 40–80 mg BID; for AUC(0-t) / AUC(0-inf) / Cmax / half-life / Tmax / MRT last: human, plasma; for AUC(0-t): AUC0-t; for AUC(0-t) / AUC(0-inf) / Cmax: Mean ± SD; for AUC(0-inf): AUC0-∞; for half-life: T1/2, Median; for Tmax: Median; for MRT last: po
[2] = system: Relapsed/Refractory Lymphoma; settings: cited from earlier work
advanced solid tumor = settings: combined with pazopanib, follow-up, cited from earlier work
r/r B cell NHL = test: Phase 1 efficacy; assay type: in vivo, human
[3] = system: r/r B cell NHL or chronic lymphocytic leukemia; settings: cited from earlier work
[4] = C1D7 compared to C1D1, 40–80 mg BID
[5] = oral, 40 mg, abexinostat continuous administration (BID, 4-h interval) on C1D1, 40 mg (n = 4)
[6] = oral, 40 mg, abexinostat continuous administration (BID, 4-h interval) on C1D7, 40 mg (n = 4)
[7] = oral, 60 mg, abexinostat continuous administration (BID, 4-h interval) on C1D1, 60 mg (n = 3)
[8] = oral, 60 mg, abexinostat continuous administration (BID, 4-h interval) on C1D7, 60 mg (n = 3)
[9] = oral, 80 mg, abexinostat continuous administration (BID, 4-h interval) on C1D1, 80 mg (n = 4)
[10] = oral, 80 mg, abexinostat continuous administration (BID, 4-h interval) on C1D7, 80 mg (n = 4)
[11] = PCYC-0403, r/r FL patients (n = 14)

## CN(C)Cc1c(C(=O)NCCOc2ccc(C(=O)NO)cc2)oc2ccccc12 [abexinostat, Abexinostat]
[1]; [4]
  average accumulation ratio for Cmax (RA-Cmax): 0.94–1.48
  average accumulation ratio for the AUC (RA-AUC): 1.16–1.52
[1]
  increase of exposure (plasma concentration) with dose: approximately dose-proportional
[1]; listed as Abexinostat
  increase of exposure (plasma concentration) with dose: dose-proportional
[1]; [5]
  AUC(0-t): 339 ± 90.9 ng·h/mL
  AUC(0-inf): 361 ± 88.3 ng·h/mL
  Cmax: 98.1 ± 27.6 ng/mL
  half-life: 3.69 h
  Tmax: 1 h
[1]; [6]
  AUC(0-t): 463 ± 32.5 ng·h/mL
  AUC(0-inf): 491 ± 43.7 ng·h/mL
  Cmax: 107 ± 16.3 ng/mL
  half-life: 4.84 h
  Tmax: 1 h
[1]; [7]
  AUC(0-t): 521 ± 60.6 ng·h/mL
  AUC(0-inf): 563 ± 69.6 ng·h/mL
  Cmax: 115 ± 24.2 ng/mL
  half-life: 6.28 h
[1]; [8]
  AUC(0-t): 600 ± 53.8 ng·h/mL
  AUC(0-inf): 656 ± 72 ng·h/mL
  Cmax: 104 ± 26.9 ng/mL
  half-life: 6.53 h
  Tmax: 0.48 h
[1]; oral, 60 mg, abexinostat continuous administration (BID, 4-h interval) on C1D1, 60 mg (n = 3), abexinostat value footnoted: 0.5 h after second dose
  Tmax: 4.55 h
[1]; [9]
  AUC(0-t): 603 ± 104 ng·h/mL
  AUC(0-inf): 625 ± 116 ng·h/mL
  Cmax: 128 ± 25.3 ng/mL
  half-life: 5.13 h
[1]; [10]
  AUC(0-t): 767 ± 140 ng·h/mL
  AUC(0-inf): 744 ± 132 ng·h/mL
  Cmax: 184 ± 27 ng/mL
  half-life: 5.03 h
  Tmax: 2.74 h
[1]; oral, 80 mg, abexinostat continuous administration (BID, 4-h interval) on C1D1, 80 mg (n = 4), abexinostat value footnoted: 0.97 h after second dose
  Tmax: 4.78 h
[1]; 40 mg
  MRT last: 2.8 h
[1]; 60 mg
  MRT last: 6.97 h
[1]; 80 mg
  MRT last: 3.47 h
[1]; on C1D7
  accumulation: slight accumulation
[1]; oral
  absorption: rapidly absorbed
[2]; PCYC-0403, mantle cell lymphoma, 3/11
  ORR: 27.3%
[2]; PCYC-0403, mantle cell lymphoma
  median PFS: 3.9 months
[2]; [11]
  CR, patients: 1
  PR, patients: 8
[2]; PCYC-0403, r/r FL patients, 9/14
  ORR: 64.3%
[2]; PCYC-0403, r/r FL patients, 12/14
  DCR: 85.7%
[2]; PCYC-0403, r/r FL patients
  median PFS: 20.5 months
Advanced solid tumor; range 39.8–133 +
  median duration of treatment in exceptional responders: 44.1 months
Advanced solid tumor
  time on treatment of one patient with RCC: > 11 years
r/r B cell NHL; FAS
  12-month PFS rate: 30.0%
  30-month PFS rate: 20.0%
  39-month OS rate: 64.8%
  duration of response (DoR): not reached
  median overall survival (OS): not reached
  median progression-free survival (PFS): 5.01 months
r/r B cell NHL; FAS, 4/10, all doses
  objective response rate (ORR): 40.0%
r/r B cell NHL; FAS, 6/10
  disease control rate (DCR): 60%
r/r B cell NHL; Patient 2, DLBCL, 40 mg BID, still on treatment
  PFS of the patient who achieved CR: over 30 months
r/r B cell NHL; at data cutoff November 30, 2023
  patients still alive: Seven patients
r/r B cell NHL; patients with FL
  median DoR: 7.82 months
  median PFS: 8.38 months
r/r B cell NHL; patients with FL, 3/6
  ORR: 50%
r/r B cell NHL; patients with FL, 5/6
  DCR: 83.3%
r/r B cell NHL; r/r DLBCL patients, 1/4
  DCR: 25%
  ORR: 25%
[3]; PCYC-0401, DLBCL
  median OS: 10.2 months
  median PFS: 2.8 months
[3]; PCYC-0401, FL
  median OS: not reached
  median PFS: 10.2 months
[3]; PCYC-0401, patients with DLBCL, 5/16
  ORR: 31%
[3]; PCYC-0401, patients with FL, 9/16
  ORR: 56%
